ChEMBL document CHEMBL3779823, “Structure of amyloid oligomers and their mechanisms of toxicities: Targeting amyloid oligomers using novel therapeutic approaches” (2016)

Test system: Mus musculus
Assay: Reduction in Abeta oligomers levels in Tg2576 mouse administered for 4 weeks
Type: functional

## NS(=O)(=O)c1cc(C(=O)O)c(NCc2ccco2)cc1Cl [FUROSEMIDE]
  inhibition (INH): 30%
